What was measured:
[1] = tested on: mouse metaphase II oocytes; assay: Treatment-induced nuclear chromatin enucleation of activated oocytes (H33342 staining, fluorescence microscopy); format: cell-based; conditions: for rate of treatment-induced chromatin enucleation: ethanol- or ionomycin-activated B6D2 oocytes, Taxol 5 μg/ml, Cycloheximide 10 μg/ml, Demecolcine 0.4 μg/ml in PBS+10% FBS, 0.5-1.5 h post activation; for rate of treatment-induced chromatin enucleation (range in parentheses): same treatments, range printed in parentheses
Text: Advances in somatic cell nuclear transfer (NT) methodology have seen the procession of cloned sheep, cows, mice and goats. Despite the clear potential use of this technology for genetic manipulations, the success rates remain woefully low. The limitations associated with nuclear transfer include the selection and preparation of competent donor cytoplasts. The cytoplasm plays a vital role in genome reprogramming and reactivation and therefore manipulations that compromise oocyte developmental competence are detrimental to the success of nuclear transfer. The present study was directed towards determining alternative methods to more efficiently prepare competent cytoplasts for nuclear transfer procedures. In experiment 1, in vivo-produced mouse metaphase II oocytes (B6D2, aguti, recovered at 16-20 h post hCG) were activated by exposure to either 7% ethanol or 2 μm ionomycin in PBS+10% FBS (5 min.). At the onset of initial second polar body formation (10-15 min. post activation) and extrusion (anaphase/telophase stage), oocytes were randomly allocated to control (cultured 0.5-1.5 h) or incubated with Taxol® (5 μg/ml), Cycloheximide (10 μg/ml) or in Demecolcine (0.4 μg/ml) in PBS+10% FBS until the second polar body was extruded (0.5-1.5 h post activation) to induce nuclear chromatin enucleation. Oocytes were stained (H33342, 5 μg/ml) to confirm the extent of nuclear chromatin enucleation using fluorescence microscopy. […] In experiment 2, Demecolcine-induced enucleated cytoplasts were used for nuclear transfer recipients. Donor nuclei were prepared from cumulus cells (Black Swiss) by partial lysis (1% sodium citrate) followed by aspiration using the injection pipette (7 um). Donor nuclei were injected into cytoplasts pretreated with Cytochalasin-B (5 μg/ml, 15 min.). Reconstructed NT embryos were subsequently co-cultured (72-96 h) with oviductal cells in drops of M-199+10% FBS. The cleavage rate was 70% (85/121) and the rate of blastocyst formation was 42% (51/121). Pregnancies were established in 2/3 recipients (CD1, white) following uterine embryo transfer (10 embryos/recipient). A total of 14 black female pups were born (47%, 14/30), seven of which were stillborn from 1 recipient and the other seven were born live (23%, 7/30) but 3 were cannibalized within 24 h. The 4 cloned pups were normal and healthy, and their fertility is being assessed. […] Moreover, cytoplasts derived from this enucleation procedure are competent to support genome reactivation and fetal development to term. This technically simple approach may provide a more efficient method to produce large numbers of cytoplasts for cloning procedures.

mouse oocytes = assay: Activation of metaphase II oocytes to Telophase II stage in vitro; format: cell-based; conditions: ionomycin 4 μM, 5 min; 3 replicate experiments
Experimental: Oocytes were collected from superovulated mice by flushing oviducts to collect metaphase II stage oocytes. Oocytes were then activated by one of two methods to reach the Telophase II state in vitro: culture-induced Ca^2+ activation or ionomycin activation (4 μM, 5 min), and enucleated. Karyoplasts were prepared from cumulus cells (natural G0 stage) and nuclear transfer was conducted followed by electrical fusion with Telophase II cytoplasts.

| SMILES | rate of treatment-induced chromatin enucleation [1] | rate of treatment-induced chromatin enucleation (range in parentheses) [1] | Activation, Number (activated/treated oocytes) (mouse oocytes) | Activation, Percent (mouse oocytes) |
| --- | --- | --- | --- | --- |
| CC(=O)O[C@H]1C(=O)[C@@]2(C)[C@H]([C@H](OC(=O)c3ccccc3)[C@]3(O)C[C@H](OC(=O)[C@H](O)[C@@H](NC(=O)c4ccccc4)c4ccccc4)C(C)=C1C3(C)C)[C@]1(OC(C)=O)CO[C@@H]1C[C@@H]2O [Taxol®, paclitaxel] | 3.6% | 0-10% | – | – |
| CN[C@H]1CCc2cc(OC)c(OC)c(OC)c2-c2ccc(OC)c(=O)cc21 [Demecolcine] | 54% | 27-70% | – | – |
| C[C@H](CCC(=O)O)C[C@H](C)C[C@H](C)C(=O)/C=C(\O)[C@H](C)C[C@H](C)C/C=C/[C@@H](C)[C@@H](O)[C@@H](C)[C@@H](O)C[C@@H]1CC[C@@](C)([C@H]2CC[C@@](C)([C@@H](C)O)O2)O1 [Ionomycin, ionomycin] | – | – | 46/50 | 92% |
| C[C@@H]1C[C@@H]([C@H](O)CC2CC(=O)NC(=O)C2)C(=O)[C@@H](C)C1 [Cycloheximide] | 16.3% | 0-24% | – | – |

Source: US7592503B2, “Mammalian telophase oocyte enucleation” (Trustees of Tufts College, priority 1998, dated 2009)
